Laboratory results taken from PMC10100342, “Thiamyxins: Structure and Biosynthesis of Myxobacterial RNA‐Virus Inhibitors” (Angewandte Chemie (International Ed. in English), 2022).

Tested on: DENV-R2A
Conditions: ratio of IC50 values

C=C1NC(=O)C2(C)CSC(=N2)c2csc(n2)C2(C)CSC(=N2)C(C(C)CC)NC(=O)C(C)NC(=O)C(=CC(C)C)COC(=O)c2csc(n2)C(C(C)C)N(C)C(=O)C(COC)NC1=O (stereo not shown) [Thiamyxin B]
IC50 against DENV-R2A lower compared to HCov-229E-luc: fourfold
